In patent publication US12564644B2, “Cyclodextrin complexes of specialized proresolving mediators” (THETIS PHARMACEUTICALS LLC, priority 2022, dated 2026):
One block for each molecule: values may come before it.

Assays:
[1] = Long-term solid-state chemical stability by HPLC, 24 weeks accelerated conditions (Example 9); format: physicochemical; details: for RvE1 Area % (error +/− 1%) Baseline: 40° C., 75% relative humidity, exposed to air; for % Change at Week 24 vs Baseline (degradation rate) / RvE1 Area % (error +/− 1%) Week 8 / RvE1 Area % (error +/− 1%) Week 16 / RvE1 Area % (error +/− 1%) Week 24: accelerated conditions
Experimental: The stability of RvE1-MgLys alone (“RvE1 Control”) and complexed with cyclodextrins (“RvE1 CD Complexes”) was evaluated. Samples of the test articles were placed in open test tubes and maintained at 40° C. and 75% relative humidity, exposed to air, for 16 weeks. […] Briefly, HPLC analysis was performed on a Halo Guard column (Halo C18 4.6×150 mm, 2.7 μm), mounted on an Agilent HPLC system equipped with a UV detector (272 nm detection). The mobile phase consisted of a gradient between solution A, water, and solution B, methanol, both containing 100 mM of ammonium formate at pH 4.0. The gradient program was 95-0% with respect to solution A and 5-100% with respect to solution B. The flow rate was 0.9 mL/min over 50 minutes. Lack of stability was indicated by a reduction in the area percent purity (area %) of the single major peak of RvE1 (retention time of 31.3 minutes) and the appearance of new HPLC peaks or an increase in the area % of pre-existing impurities. All HPLC measurements of RvE1 purity and degradant levels were calculated based on area percent relative to the detectable components of the molecule including isomers and epimers of RvE1, impurities and degradants induced by the test conditions.
A study of the chemical stability of both RvE1-Mg-Lys alone and sodium RvE1 (“Na-RvE1”) alone and complexed with cyclodextrins was evaluated over 24 weeks. Samples of the test articles as solids were placed in open test tubes and maintained at 40° C. and 75% relative humidity, exposed to air.

[2] = Chemical stability in solution (deionized water) by HPLC, 16 weeks accelerated conditions (Example 10); format: physicochemical; details: for RvE1 Area % Baseline: 2 mg/ml of RvE1, 40° C., 75% relative humidity, exposed to air; for % Change at Week 16 vs Baseline / RvE1 Area % Week 8 / RvE1 Area % Week 16: 2 mg/ml of RvE1, accelerated conditions
Experimental: The stability of […] alone (“RvE1 Control”) and complexed with cyclodextrins (“RvE1 CD Complexes”) was evaluated. Samples of the test articles were placed in open test tubes and maintained at 40° C. and 75% relative humidity, exposed to air, for 16 weeks. […] Briefly, HPLC analysis was performed on a Halo Guard column (Halo C18 4.6×150 mm, 2.7 μm), mounted on an Agilent HPLC system equipped with a UV detector (272 nm detection). The mobile phase consisted of a gradient between solution A, water, and solution B, methanol, both containing 100 mM of ammonium formate at pH 4.0. The gradient program was 95-0% with respect to solution A and 5-100% with respect to solution B. The flow rate was 0.9 mL/min over 50 minutes. Lack of stability was indicated by a reduction in the area percent purity (area %) of the single major peak of RvE1 (retention time of 31.3 minutes) and the appearance of new HPLC peaks or an increase in the area % of pre-existing impurities. All HPLC measurements of RvE1 purity and degradant levels were calculated based on area percent relative to the detectable components of the molecule including isomers and epimers of RvE1, impurities and degradants induced by the test conditions. The chemical stability of […] or Na-RvE1 alone and complexed with cyclodextrins in solution was evaluated. Samples of the test articles dissolved in deionized water at a concentration of 2 mg/ml of RvE1 were placed in open test tubes and maintained at 40° C. and 75% relative humidity, exposed to air, over a period of 16 weeks.

[3] = Solid-state chemical stability by HPLC, 16 weeks accelerated conditions (Example 8); format: physicochemical
Experimental: The stability of […] alone (“RvE1 Control”) and complexed with cyclodextrins (“RvE1 CD Complexes”) was evaluated. Samples of the test articles were placed in open test tubes and maintained at 40° C. and 75% relative humidity, exposed to air, for 16 weeks. […] Briefly, HPLC analysis was performed on a Halo Guard column (Halo C18 4.6×150 mm, 2.7 μm), mounted on an Agilent HPLC system equipped with a UV detector (272 nm detection). The mobile phase consisted of a gradient between solution A, water, and solution B, methanol, both containing 100 mM of ammonium formate at pH 4.0. The gradient program was 95-0% with respect to solution A and 5-100% with respect to solution B. The flow rate was 0.9 mL/min over 50 minutes. Lack of stability was indicated by a reduction in the area percent purity (area %) of the single major peak of RvE1 (retention time of 31.3 minutes) and the appearance of new HPLC peaks or an increase in the area % of pre-existing impurities. All HPLC measurements of RvE1 purity and degradant levels were calculated based on area percent relative to the detectable components of the molecule including isomers and epimers of RvE1, impurities and degradants induced by the test conditions.

[4] = Solid-state physical stability, visual, ambient conditions 168 hours (Example 11); format: physicochemical; details: open test tubes, 18-22° C., relative humidity 52% to 72%
Experimental: The solid-state physical stability of […] alone (“RvE1 Control”) […]-cyclodextrin complex (“RvE1 Complex”) was evaluated (FIG. 24A-D). Samples of the test articles as solids were placed in open test tubes under ambient conditions over a period of 168 hours, at temperature between 18-22° C. and relative humidity between 52% and 72%. The solid-state physical stability was assessed visually based on whether the substance retained its form as a solid powder or transitioned to a liquid form.

[5] = Oral pharmacokinetics, RvE1 in blood plasma after single oral gavage (Example 12); format: in vivo; details: mice
Experimental: To establish the comparative oral pharmacokinetics (“PK”) of RvE1 MgLys alone (“RvE1 Control”) and RvE1 MgLys complexed with gamma-cyclodextrin (“RvE1 Complex”), a study was conducted to investigate RvE1 exposure in blood plasma following a single dose of RvE1 Control or RvE1 Complex administered via oral gavage at various timepoints up to 8 hours of 4 mg/kg of RvE1. Quantitative measurement of RvE1 in blood plasma was determined by HPLC-MS/MS performed on a Halo Guard column (Halo C18 4.6×150 mm, 2.7 μm), mounted on an Agilent HPLC system equipped with a UV detector (272 nm detection).
Sixty five (65) male C57B16 mice were randomized into 3 experimental groups at 8 weeks of age: baseline control (“Baseline”, n=5), RvE1 Control (n=30) and the RvE1 Complex (n=30). Prior to administration of test article, the mice in the Baseline group were sacrificed and blood was drawn to establish the endogenous levels of RvE1 in plasma. The 60 remaining mice received a single dose of RvE1 Control or RvE1 Complex. Five (5) mice in each group were sacrificed at each of the following timepoints to enable the determination of an RvE1 concentration-versus-time curve: 15 minutes, 30 minutes, 1, 2—, 4- and 8-hours post-dose. At the time of sacrifice blood was drawn into EDTA-treated tubes and immediately frozen.

[6] = Solid-state chemical stability by HPLC, 16 weeks accelerated conditions (Example 8); format: physicochemical; details: 40° C., 75% relative humidity, exposed to air
[7] = accelerated conditions, baseline
[8] = accelerated conditions, week 16

RvE1 Area % (error +/− 1%) Baseline [1]: 96.2%
RvE1 Area % (error +/− 1%) Baseline ([1]; listed as Na-RvE1 control): 96.2%
% Change at Week 24 vs Baseline (degradation rate) [1]: 100.0%
% Change at Week 24 vs Baseline (degradation rate) ([1]; listed as Na-RvE1 control): 100%
RvE1 Area % (error +/− 1%) Week 8 [1]: 78.0%
RvE1 Area % (error +/− 1%) Week 16 [1]: 49.8%
RvE1 Area % (error +/− 1%) Week 24 ([1]; week 24): 0.0%
RvE1 Area % (error +/− 1%) Week 24 ([1]; week 24, listed as Na-RvE1 Control): 0%
RvE1 Area % Baseline [2]: 96.2%
% Change at Week 16 vs Baseline [2]: 80.7%
RvE1 Area % Week 8 [2]: 36.0%
RvE1 Area % Week 16 ([2]; week 16): 18.6%
RvE1 Area % Week 16 ([2]; week 16, listed as Na-RvE1 Control): 18.6%
SMILES: CC[C@@H](O)/C=C/C=C/C[C@@H](O)/C=C/C=C/C=C/[C@@H](O)CCCC(=O)[O-].[Na+] [Na-RvE1, sodium RvE1]

% Change at Week 16 vs Baseline (degradation rate) ([3]; 40° C., 75% relative humidity, exposed to air): 14.1%
RvE1 Area % Week 8 ([3]; 40° C., 75% relative humidity, exposed to air, week 8): 86.7%
RvE1 Area % Week 16 ([3]; 40° C., 75% relative humidity, exposed to air, week 16): 80.7%
# of Deg. Peaks ≥0.20% Baseline [3, 7]: 6
# of Deg. Peaks ≥1.00% Baseline [3, 7]: 2
# of Deg. Peaks ≥0.20% Week 8 ([3]; accelerated conditions, week 8): 19
# of Deg. Peaks ≥1.00% Week 8 ([3]; accelerated conditions, week 8): 4
# of Deg. Peaks ≥0.20% Week 16 [3, 8]: 19
# of Deg. Peaks ≥1.00% Week 16 [3, 8]: 8
RvE1 Area % Baseline ([3]; open test tubes, 40° C., 75% relative humidity, exposed to air, baseline): 94%
RvE1 Area % (error +/− 1%) Baseline ([1]; listed as RvE1 Mg-Lys): 94.8%
RvE1 Area % (error +/− 1%) Baseline ([1]; listed as RvE1 MgLys control): 94.8%
% Change at Week 24 vs Baseline (degradation rate) ([1]; listed as RvE1-MgLys control): 16.6%
% Change at Week 24 vs Baseline (degradation rate) ([1]; listed as RvE1 Mg-Lys): 16.6%
RvE1 Area % (error +/− 1%) Week 8 [1]: 88.4%
RvE1 Area % (error +/− 1%) Week 16 [1]: 82.3%
RvE1 Area % (error +/− 1%) Week 24 ([1]; week 24, listed as RvE1-MgLys Control): 79.1%
RvE1 Area % (error +/− 1%) Week 24 ([1]; week 24, listed as RvE1 Mg-Lys): 79.1%
RvE1 Area % Baseline [2]: 94.8%
% Change at Week 16 vs Baseline [2]: 45.7%
RvE1 Area % Week 8 [2]: 84.3%
RvE1 Area % Week 16 ([2]; week 16, listed as RvE1-MgLys Control): 51.5%
RvE1 Area % Week 16 ([2]; week 16, listed as RvE1 Mg-Lys): 51.5%
physical form, visual ([4]; 24 and 168 hours): gel-like substance
physical form, visual ([4]; 8 hours, listed as RvE1-Control): remained in powder form
physical form, visual ([4]; baseline): powder form
AUC (0 to 8 hrs) ([5]; 4 mg/kg of RvE1): 15.2 ng·h/mL
Cmax ([5]; 4 mg/kg of RvE1): 45.5 ng/mL
Tmax ([5]; 4 mg/kg of RvE1): 15 min
RvE1 plasma concentration 15 min ([5]; 4 mg/kg of RvE1, 15 min): 45.5 ng/mL
RvE1 plasma concentration 30 min ([5]; 4 mg/kg of RvE1, 30 min): 6.3 ng/mL
RvE1 plasma concentration 1 hr ([5]; 4 mg/kg of RvE1, 1 hr): 1.2 ng/mL
RvE1 plasma concentration 2 hr ([5]; 4 mg/kg of RvE1, 2 hr): 0.2 ng/mL
RvE1 plasma concentration 4 hr ([5]; 4 mg/kg of RvE1, 4 hr): 0.3 ng/mL
RvE1 plasma concentration 8 hr ([5]; 4 mg/kg of RvE1, 8 hr): 0.1 ng/mL
RvE1 Area % Week 16 ([6]; week 16, listed as RvE1-MgLys): 80.7%
RvE1 Area % Baseline ([6]; open test tubes, baseline, listed as RvE1-MgLys): 94.0%
SMILES: CC[C@@H](O)/C=C/C=C\C[C@@H](O)/C=C/C=C/C=C\[C@@H](O)CCCC(=O)O.CC[C@@H](O)/C=C/C=C\C[C@@H](O)/C=C/C=C/C=C\[C@@H](O)CCCC(=O)O.NCCCC[C@H](N)C(=O)[O-].NCCCC[C@H](N)C(=O)[O-].[Mg+2] [RvE1 Control, RvE1 magnesium dilysinate]
physical form, visual ([4]; 8 hours): began to agglomerate and turn a darker color
